# Results taken from EP4667458A1 (Kanaph Therapeutics Inc., priority 2023, dated 2024).
# Target: T1, KRAS^G12C::SOS1 (Homo sapiens, UniProt Q07889)
# T1 sequence (Q07889 1-1333): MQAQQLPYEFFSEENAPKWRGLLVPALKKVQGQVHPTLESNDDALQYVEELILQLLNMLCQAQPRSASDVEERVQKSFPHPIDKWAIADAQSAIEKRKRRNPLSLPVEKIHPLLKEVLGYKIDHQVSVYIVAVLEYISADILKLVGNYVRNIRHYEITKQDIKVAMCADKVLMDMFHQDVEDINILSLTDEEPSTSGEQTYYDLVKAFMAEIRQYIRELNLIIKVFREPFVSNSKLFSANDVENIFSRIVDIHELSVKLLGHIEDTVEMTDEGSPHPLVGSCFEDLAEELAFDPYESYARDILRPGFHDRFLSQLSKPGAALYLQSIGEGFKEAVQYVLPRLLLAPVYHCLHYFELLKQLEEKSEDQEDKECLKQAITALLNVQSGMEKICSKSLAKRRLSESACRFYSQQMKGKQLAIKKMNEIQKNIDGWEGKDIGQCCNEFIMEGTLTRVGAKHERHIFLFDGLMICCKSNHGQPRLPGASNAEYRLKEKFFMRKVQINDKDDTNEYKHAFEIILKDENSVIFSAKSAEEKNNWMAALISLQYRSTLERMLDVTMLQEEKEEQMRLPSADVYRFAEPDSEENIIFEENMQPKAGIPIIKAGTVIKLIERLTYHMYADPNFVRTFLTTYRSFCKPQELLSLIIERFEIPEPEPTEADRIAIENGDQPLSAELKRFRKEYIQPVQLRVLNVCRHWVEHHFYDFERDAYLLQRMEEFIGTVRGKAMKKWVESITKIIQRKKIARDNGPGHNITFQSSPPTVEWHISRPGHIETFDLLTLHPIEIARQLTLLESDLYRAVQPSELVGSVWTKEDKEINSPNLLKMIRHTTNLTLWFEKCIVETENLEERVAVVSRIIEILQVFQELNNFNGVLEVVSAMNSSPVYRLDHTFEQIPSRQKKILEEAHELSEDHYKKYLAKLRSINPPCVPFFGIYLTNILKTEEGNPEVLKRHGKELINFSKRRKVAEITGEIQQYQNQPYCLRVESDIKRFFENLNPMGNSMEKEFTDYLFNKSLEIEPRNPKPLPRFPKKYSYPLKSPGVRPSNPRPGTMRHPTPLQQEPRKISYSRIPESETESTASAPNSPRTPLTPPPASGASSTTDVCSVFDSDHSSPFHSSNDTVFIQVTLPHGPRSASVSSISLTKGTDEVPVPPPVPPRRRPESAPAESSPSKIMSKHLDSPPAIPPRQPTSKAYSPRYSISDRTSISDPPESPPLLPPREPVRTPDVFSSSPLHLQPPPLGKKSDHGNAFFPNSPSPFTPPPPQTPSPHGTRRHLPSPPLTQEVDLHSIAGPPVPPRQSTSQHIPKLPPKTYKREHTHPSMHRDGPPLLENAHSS
# Assay: KRAS G12C::SOS1 protein-protein interaction (PPI) inhibition assay (HTRF binding kit)
row,IC50 [µM],SMILES
1,< 1,"COc1cccc(-n2cc(C(=O)N[C@H](C)c3cccc(C(F)(F)CO)c3F)ccc2=O)c1F [Example 186, N-[(1R)-1-[3-(1,1-difluoro-2-hydroxy-ethyl)-2-fluoro-phenyl]ethyl]-1-(2-fluoro-3-methoxyphenyl)-6-oxo-pyridine-3-carboxamide]"
2,< 1,"COc1cccc(-n2cc(C(=O)N[C@H](C)c3cc(N)cc(C(F)(F)F)c3)ccc2=O)c1F [Example 187, N-[(1R)-1-[3-amino-5-(trifluoromethyl)phenyl]ethyl]-1-(2-fluoro-3-methoxy-phenyl)-6-oxo-pyridine-3-carboxamide]"
3,< 1,"C[C@@H](NC(=O)c1ccc(=O)n(-c2ccccc2)n1)c1cccc(I)c1 [Example 188, (R)-N-(1-(3-iodophenyl)ethyl)-6-oxo-1-phenyl-1,6-dihydropyridazine-3-carboxamide]"
4,< 1,"CCOc1ccc(-n2nc(C(=O)N[C@H](C)c3cc(N)cc(C(F)(F)F)c3)ccc2=O)cc1 [Example 189, (R)-N-(1-(3-amino-5-(trifluoromethyl)phenyl)ethyl)-1-(4-ethoxyphenyl)-6-oxo-1,6-dihydropyridazine-3-carboxamide]"
5,< 1,"C[C@@H](NC(=O)c1ccc(=O)n(-c2ccccc2)n1)c1cccc(S(F)(F)(F)(F)F)c1 [Example 190, 6-oxo-N-[(1R)-1-[3-(pentafluoro-λ6-sulfanyl)phenyl]ethyl]-1-phenyl-pyridazine-3-carboxamide]"
6,< 1,"C[C@@H](NC(=O)c1ccc(=O)n(-c2ccccc2F)n1)c1cccc(C(F)(F)C(C)(C)O)c1F [Example 192, N-[(1R)-1-[3-(1,1-difluoro-2-hydroxy-2-methyl-propyl)-2-fluoro-phenyl]ethyl]-1-(2-fluorophenyl)-6-oxo-pyridazine-3-carboxamide]"
7,< 1,"COc1cc(-n2nc(C(=O)N[C@H](C)c3cccc(C(F)(F)CO)c3F)ccc2=O)ccn1 [Example 193, N-[(1R)-1-[3-(1,1-difluoro-2-hydroxy-ethyl)-2-fluoro-phenyl]ethyl]-1-(2-methoxy-4-pyridyl)-6-oxo-pyridazine-3-carboxamide]"
8,< 1,"C[C@@H](NC(=O)c1ccc(=O)n(-c2cccc(C(=O)N3CCCC3)c2)n1)c1cccc(C(F)(F)CO)c1F [Example 194, N-[(1R)-1-[3-(1,1-difluoro-2-hydroxy-ethyl)-2-fluoro-phenyl]ethyl]-6-oxo-1-[3-(pyrrolidine-1-carbonyl)phenyl]pyridazine-3-carboxamide]"
9,< 1,"C[C@@H](NC(=O)c1ccc(=O)n(-c2ccc(OC(F)F)cc2)n1)c1cccc(C(F)(F)CO)c1F [Example 195, N-[(1R)-1-[3-(1,1-difluoro-2-hydroxy-ethyl)-2-fluoro-phenyl]ethyl]-1-[4-(difluoromethoxy)phenyl]-6-oxo-pyridazine-3-carboxamide]"
10,< 1,"COc1cc(-n2nc(C(=O)N[C@H](C)c3cc(N)cc(C(F)(F)F)c3)ccc2=O)ccn1 [Example 196, N-[(1R)-1-[3-amino-5-(trifluoromethyl)phenyl]ethyl]-1-(2-methoxy-4-pyridyl)-6-oxo-pyridazine-3-carboxamide]"
11,< 1,"C[C@@H](NC(=O)c1ccc(=O)n(-c2cccc(C(=O)N3CCCC3)c2)n1)c1cc(N)cc(C(F)(F)F)c1 [Example 197, N-[(1R)-1-[3-amino-5-(trifluoromethyl)phenyl]ethyl]-6-oxo-1-[3-(pyrrolidine-1-carbonyl)phenyl]pyridazine-3-carboxamide]"
12,< 1,"C[C@@H](NC(=O)c1ccc(=O)n(-c2ccc(OC(F)F)cc2)n1)c1cc(N)cc(C(F)(F)F)c1 [Example 198, N-[(1R)-1-[3-amino-5-(trifluoromethyl)phenyl]ethyl]-1-[4-(difluoromethoxy)phenyl]-6-oxo-pyridazine-3-carboxamide]"
13,< 1,"COc1ccc(-n2cc(C(=O)N[C@H](C)c3cc(N)cc(C(F)(F)F)c3)ccc2=O)cc1 [Example 199, N-[(1R)-1-[3-amino-5-(trifluoromethyl)phenyl]ethyl]-1-(4-methoxyphenyl)-6-oxo-pyridine-3-carboxamide]"
14,< 1,"C[C@@H](NC(=O)c1ccc(=O)n(-c2cnn(C)c2)n1)c1cc(N)cc(C(F)(F)F)c1 [Example 200, N-[(1R)-1-[3-amino-5-(trifluoromethyl)phenyl]ethyl]-1-(1-methylpyrazol-4-yl)-6-oxo-pyridazine-3-carboxamide]"
15,< 1,"CC(C)c1cccc([C@@H](C)NC(=O)c2ccc(=O)n(-c3ccccc3)n2)c1 [Example 201, N-[(1R)-1-(3-isopropylphenyl)ethyl]-6-oxo-1-phenyl-pyridazine-3-carboxamide]"
16,< 1,"C[C@@H](NC(=O)c1ccc(=O)n(-c2ccc(OC(F)(F)F)cc2)n1)c1cccc(C(F)(F)CO)c1F [Example 202, N-[(1R)-1-[3-(1,1-difluoro-2-hydroxy-ethyl)-2-fluoro-phenyl]ethyl]-6-oxo-1-[4-(trifluoromethoxy)phenyl]pyridazine-3-carboxamide]"
17,< 1,"COc1ccc(-n2cc(C(=O)N[C@H](C)c3cccc(C(F)(F)CO)c3F)ccc2=O)cc1 [Example 203, N-[(1R)-1-[3-(1,1-difluoro-2-hydroxy-ethyl)-2-fluoro-phenyl]ethyl]-1-(4-methoxyphenyl)-6-oxo-pyridine-3-carboxamide]"
18,< 1,"COCc1cccc(-n2nc(C(=O)N[C@H](C)c3cccc(C(F)(F)CO)c3F)ccc2=O)c1 [Example 204, N-[(1R)-1-[3-(1,1-difluoro-2-hydroxy-ethyl)-2-fluoro-phenyl]ethyl]-1-[3-(methoxymethyl)phenyl]-6-oxo-pyridazine-3-carboxamide]"
19,< 1,"COCc1cccc(-n2nc(C(=O)N[C@H](C)c3cc(N)cc(C(F)(F)F)c3)ccc2=O)c1 [Example 205, N-[(1R)-1-[3-amino-5-(trifluoromethyl)phenyl]ethyl]-1-[3-(methoxymethyl)phenyl]-6-oxo-pyridazine-3-carboxamide]"
20,< 1,"COc1ccc(-n2nc(C(=O)N[C@H](C)c3cccc(C(F)(F)CO)c3F)ccc2=O)cc1C(=O)N(C)C [Example 206, N-[(1R)-1-[3-(1,1-difluoro-2-hydroxy-ethyl)-2-fluoro-phenyl]ethyl]-1-[3-(dimethylcarbamoyl)-4-methoxy-phenyl]-6-oxo-pyridazine-3-carboxamide]"
21,< 1,"COc1ccc(-n2nc(C(=O)N[C@H](C)c3cc(N)cc(C(F)(F)F)c3)ccc2=O)cc1C(=O)N(C)C [Example 207, N-[(1R)-1-[3-amino-5-(trifluoromethyl)phenyl]ethyl]-1-[3-(dimethylcarbamoyl)-4-methoxy-phenyl]-6-oxo-pyridazine-3-carboxamide]"
22,< 1,"C[C@@H](NC(=O)c1ccc(=O)n(-c2ccc3c(c2)COC3)n1)c1cc(N)cc(C(F)(F)F)c1 [Example 208, N-[(1R)-1-[3-amino-5-(trifluoromethyl)phenyl]ethyl]-1-(1,3-dihydroisobenzofuran-5-yl)-6-oxo-pyridazine-3-carboxamide]"
23,< 1,"C[C@@H](NC(=O)c1ccc(=O)n(-c2cnn(C)c2Cl)n1)c1cc(N)cc(C(F)(F)F)c1 [Example 209, N-[(1R)-1-[3-amino-5-(trifluoromethyl)phenyl]ethyl]-1-(5-chloro-1-methyl-pyrazol-4-yl)-6-oxo-pyridazine-3-carboxamide]"
24,< 1,"C[C@@H](NC(=O)c1nn(-c2ccccc2F)c(=O)cc1Nc1ccccc1)c1cc(N)cc(C(F)(F)F)c1 [Example 210, N-[(1R)-1-[3-amino-5-(trifluoromethyl)phenyl]ethyl]-4-anilino-1-(2-fluorophenyl)-6-oxo-pyridazine-3-carboxamide]"
25,< 1,"Cc1ncnn1-c1cccc(-n2nc(C(=O)N[C@H](C)c3cc(N)cc(C(F)(F)F)c3)ccc2=O)c1 [Example 211, N-[(1R)-1-[3-amino-5-(trifluoromethyl)phenyl]ethyl]-1-[3-(5-methyl-1,2,4-triazol-1-yl)phenyl]-6-oxo-pyridazine-3-carboxamide]"
26,< 1,"C[C@@H](NC(=O)c1cc(N)c(=O)n(-c2ccccc2)n1)c1cc(N)cc(C(F)(F)F)c1 [Example 213, 5-amino-N-[(1R)-1-[3-amino-5-(trifluoromethyl)phenyl]ethyl]-6-oxo-1-phenyl-pyridazine-3-carboxamide]"
